Test results: the NIST ThermoML archive (doi:10.1021/je9002306)
Numbers after ± are expanded uncertainties.

What was measured:
[1] = cn = amount concentration of the nth substance listed, in mol/dm3; conditions: 298.15 K, 101.3 kPa, Liquid, Wayne-Kerr 6430B Auto Balance Bridge
[2] = mn = molality of the nth substance listed, in mol/kg; conditions: 298.15 K, 101.3 kPa, Liquid, Vibrating tube method

CCCCCCCCCCCCn1cc[n+](C)c1.[Br-] [1-dodecyl-3-methylimidazolium bromide] + OCCO
Conditions | mass density [kg/m3] | molar conductivity [S·m2/mol]
[1], c1 = 0.000348 | – | 0.000654 ± 1e-06
[1], c1 = 0.0004233 | – | 0.000653 ± 1e-06
[1], c1 = 0.0004995 | – | 0.000652 ± 1e-06
[1], c1 = 0.0005785 | – | 0.00065 ± 1e-06
[1], c1 = 0.0006521 | – | 0.000649 ± 1e-06
[1], c1 = 0.0007213 | – | 0.000648 ± 1e-06
[1], c1 = 0.0008076 | – | 0.000646 ± 1e-06
[1], c1 = 0.0008687 | – | 0.000645 ± 1e-06
[1], c1 = 0.0009337 | – | 0.000644 ± 1e-06
[1], c1 = 0.001012 | – | 0.000643 ± 1e-06
[2], m1 = 0.003873 | 1109.91 ± 6.7 | –
[2], m1 = 0.007663 | 1109.87 ± 6.7 | –
[2], m1 = 0.01013 | 1109.85 ± 6.7 | –
[2], m1 = 0.0133 | 1109.82 ± 6.7 | –
[2], m1 = 0.0168 | 1109.78 ± 6.7 | –
[2], m1 = 0.02023 | 1109.75 ± 6.7 | –
[2], m1 = 0.03123 | 1109.63 ± 6.7 | –
[2], m1 = 0.03429 | 1109.6 ± 6.7 | –

CCCCCCCCn1cc[n+](C)c1.[Br-] [1-methyl-3-octylimidazolium bromide] + CN(C)C=O
Conditions | mass density [kg/m3] | molar conductivity [S·m2/mol]
[1], c1 = 0.0002813 | – | 0.007841 ± 3e-06
[1], c1 = 0.0003412 | – | 0.007808 ± 3e-06
[1], c1 = 0.0003997 | – | 0.007775 ± 3e-06
[1], c1 = 0.0004885 | – | 0.007732 ± 3e-06
[1], c1 = 0.0005571 | – | 0.0077 ± 3e-06
[1], c1 = 0.0006412 | – | 0.007663 ± 3e-06
[1], c1 = 0.0007099 | – | 0.007638 ± 3e-06
[1], c1 = 0.0007743 | – | 0.007612 ± 3e-06
[1], c1 = 0.000834 | – | 0.00759 ± 3e-06
[1], c1 = 0.0008925 | – | 0.007568 ± 3e-06
[2], m1 = 0.0036 | 944.562 ± 4.8 | –
[2], m1 = 0.00742 | 944.824 ± 4.8 | –
[2], m1 = 0.01114 | 945.075 ± 4.8 | –
[2], m1 = 0.01485 | 945.316 ± 4.8 | –
[2], m1 = 0.01862 | 945.557 ± 4.8 | –
[2], m1 = 0.02243 | 945.792 ± 4.9 | –
[2], m1 = 0.02634 | 946.03 ± 4.9 | –
[2], m1 = 0.03009 | 946.26 ± 4.9 | –
[2], m1 = 0.03685 | 946.653 ± 4.9 | –
[2], m1 = 0.04079 | 946.877 ± 4.9 | –

CCCCCCCCn1cc[n+](C)c1.[Br-] [1-methyl-3-octylimidazolium bromide] + C[S+](C)[O-]
Conditions | mass density [kg/m3] | molar conductivity [S·m2/mol]
[1], c1 = 0.0002816 | – | 0.003566 ± 2e-06
[1], c1 = 0.0003649 | – | 0.003551 ± 2e-06
[1], c1 = 0.0004495 | – | 0.00354 ± 2e-06
[1], c1 = 0.0005343 | – | 0.003529 ± 2e-06
[1], c1 = 0.000601 | – | 0.003521 ± 2e-06
[1], c1 = 0.000699 | – | 0.00351 ± 2e-06
[1], c1 = 0.0007785 | – | 0.003501 ± 2e-06
[1], c1 = 0.0008592 | – | 0.003493 ± 2e-06
[1], c1 = 0.0009426 | – | 0.003485 ± 1e-06
[2], m1 = 0.003697 | 1095.43 ± 6.5 | –
[2], m1 = 0.007705 | 1095.54 ± 6.5 | –
[2], m1 = 0.01147 | 1095.63 ± 6.5 | –
[2], m1 = 0.01568 | 1095.74 ± 6.5 | –
[2], m1 = 0.01953 | 1095.84 ± 6.5 | –
[2], m1 = 0.02373 | 1095.95 ± 6.5 | –
[2], m1 = 0.02785 | 1096.05 ± 6.5 | –
[2], m1 = 0.03185 | 1096.15 ± 6.5 | –
[2], m1 = 0.03581 | 1096.25 ± 6.5 | –
[2], m1 = 0.03956 | 1096.34 ± 6.5 | –

CCCCCCCCn1cc[n+](C)c1.[Br-] [1-methyl-3-octylimidazolium bromide] + OCCO
Conditions | mass density [kg/m3] | molar conductivity [S·m2/mol]
[1], c1 = 0.0003384 | – | 0.000678 ± 1e-06
[1], c1 = 0.0004129 | – | 0.000677 ± 1e-06
[1], c1 = 0.0004841 | – | 0.000675 ± 1e-06
[1], c1 = 0.0005608 | – | 0.000674 ± 1e-06
[1], c1 = 0.0006367 | – | 0.000673 ± 1e-06
[1], c1 = 0.0007095 | – | 0.000672 ± 1e-06
[1], c1 = 0.0007842 | – | 0.000671 ± 1e-06
[1], c1 = 0.0008592 | – | 0.00067 ± 1e-06
[1], c1 = 0.0009615 | – | 0.000669 ± 1e-06
[1], c1 = 0.001054 | – | 0.000668 ± 1e-06
[2], m1 = 0.006765 | 1110.04 ± 6.7 | –
[2], m1 = 0.007869 | 1110.06 ± 6.7 | –
[2], m1 = 0.01325 | 1110.12 ± 6.7 | –
[2], m1 = 0.0167 | 1110.22 ± 6.7 | –
[2], m1 = 0.02074 | 1110.25 ± 6.7 | –
[2], m1 = 0.02364 | 1110.34 ± 6.7 | –
[2], m1 = 0.03075 | 1110.39 ± 6.7 | –
[2], m1 = 0.03492 | 1110.42 ± 6.7 | –
[2], m1 = 0.03798 | 1110.48 ± 6.7 | –

C[S+](C)[O-] [dimethyl sulfoxide] + CCCCCCCCCCCCn1cc[n+](C)c1.[Br-]
Conditions | mass density [kg/m3]
[2], m2 = 0 | 1095.35 ± 6.5

C[S+](C)[O-] [dimethyl sulfoxide] + CCCCCCCCCCn1cc[n+](C)c1.[Br-]
Conditions | mass density [kg/m3]
[2], m2 = 0 | 1095.33 ± 6.5

C[S+](C)[O-] [dimethyl sulfoxide] + CCCCCCCCn1cc[n+](C)c1.[Br-]
Conditions | mass density [kg/m3]
[2], m2 = 0 | 1095.33 ± 6.5

CN(C)C=O [dimethylformamide] + CCCCCCCCCCCCn1cc[n+](C)c1.[Br-]
Conditions | mass density [kg/m3]
[2], m2 = 0 | 944.305 ± 4.8

CN(C)C=O [dimethylformamide] + CCCCCCCCCCn1cc[n+](C)c1.[Br-]
Conditions | mass density [kg/m3]
[2], m2 = 0 | 944.305 ± 4.8

CN(C)C=O [dimethylformamide] + CCCCCCCCn1cc[n+](C)c1.[Br-]
Conditions | mass density [kg/m3]
[2], m2 = 0 | 944.305 ± 4.8
